Several values for one entry are separate records, joined by “and”; a condition that tells them apart may be missing. Equal values may be shown once.
Tested on: Lipoprotein, lipid and apolipoprotein concentrations
Test: Phase 2 placebo-controlled study of obicetrapib as adjunct to high-intensity statin therapy: lipid efficacy
Type: in vivo, human
Conditions: for Apo A1, week 8 change, LS Mean ± SE / Apo B, week 8 change, LS Mean ± SE / HDL-C, week 8 change, LS Mean ± SE / LDL-C (Martin-Hopkins), week 8 change, LS Mean ± SE / Lp(a), week 8 change, LS Mean ± SE / Non-HDL-C, week 8 change, LS Mean ± SE / TG, week 8 change, LS Mean ± SE / VLDL-C, week 8 change, LS Mean ± SE / LDL-C by Friedewald, % change from baseline, LS mean: MMRM; for LDL-C (PUC), week 8 change, LS Mean ± SE (Table 9): analysis of covariance model; for LDL-C (Friedewald formula) reduced from baseline by: primary analysis; for LDL-C (Friedewald formula) reduced from baseline by / Apo B reduced by / Lp(a) reduced by / non-HDL-C reduced by: stated as reduction; for ApoB, % change from baseline, median / HDL-C, % change from baseline, median / LDL-C by Friedewald, % change from baseline (median) / LDL-C by PUC, % change from baseline (median) / Non-HDL-C, % change (median) from baseline / LDL-C by Friedewald, % change from baseline, LS mean: week 8, on top of high-intensity statin
Protocol: The study consisted of three arms: 1) 5 mg obicetrapib as adjunctive therapy; 2) 10 mg obicetrapib as adjunctive therapy and 3) a placebo arm. The second objective was to evaluate other lipoprotein lipid and apolipoprotein responses, safety and tolerability profiles, and plasma concentrations of obicetrapib during treatment and for several weeks of follow-up. Lastly, this study aimed to determine if different quantitative measures of LDL-C levels produced differences in the treatment effects of CETP inhibition.
This randomised, double-blind, placebo-controlled, parallel-group phase 2 trial was conducted in male and female patients (18-75 years), treated with high-intensity statin therapy, with LDL-C levels >70 mg/DL and TG levels <400 mg/dL. Key exclusion criteria were patients with BMI >40 kg/m; Significant cardiovascular disease; HbAc >10%; Uncontrolled hypertension; Active muscle disease; GFR <60 ml/min; Hepatic dysfunction; Anemia; History of malignancy; Alcohol abuse; Treatment with investigational product; Treatment with PCSK9 inhibitor; Clinically significant condition; and/or prior exposure to a CETP inhibitor. Patients were recruited at 19 sites in the United States. The trial was approved by Independent Ethics Committees, and each patient provided written informed consent. The trial was conducted in accordance with the principles of the Declaration of Helsinki and Good Clinical Practice Guidelines and the protocol was registered on ClinicalTrials.gov (NCT04753606).
The screening period for this study took up to 2-weeks. Afterwards patients were randomized to placebo, 5 mg obicetrapib or 10 mg obicetrapib for an 8-week treatment period. After the treatment period, patients continued for a 4-week safety follow-up and a 15-week PK follow-up.
Patients were randomly assigned to receive one of the three treatments investigative treatments. All treatments were to be taken once daily with food for 8 weeks. Safety was assessed throughout the trial by monitoring adverse events and concomitant medication use, 12-lead electrocardiograms (ECGs), vital signs, laboratory safety assessments and physical examinations. Additional assessments included salivary cortisol, plasma aldosterone, high-sensitivity C-reactive protein (hsCRP) and endothelin 1.
Efficacy assessments included fasted lipid profiles including total cholesterol (TC), HDL-C, LDL-C, triglycerides, apolipoprotein B (ApoB), and derived parameters.
Total cholesterol and triglycerides were measured by homogenous enzymatic assay using a Modular analyser (cholesterol oxidase peroxidase-peroxidase aminophenazone phenol [CHOP-PAP]) method and a glycerol phosphate oxidase [GPO-PAP] method, respectively. Apolipoprotein B was measured by immunoturbidimetry using reagents from Rolf Greiner Biochemica (Germany) and N apoprotein standard serum from Siemens (Germany). LDL particle size was determined by gradient gel electrophoresis. HDL fraction was separated by a combined ultracentrifugation-precipitation method (β-quantification). HDL-2 and HDL-3 fractions were then separated by further ultracentrifugation. Total-cholesterol in HDL, HDL 2 and HLD-3 fractions, free cholesterol in HDL fraction, triglycerides in HDL fraction and phospholipids in plasma and HDL-fraction were measured using enzymatic methods and reagents from Diasys Diagnostics (Germany). The measurements were performed on an Olympus AU600 automatic analyzer and were calibrated using secondary standards from Roche Diagnostics (total-cholesterol, triglycerides) and Diasys Diagnostics (free cholesterol, phospholipids), respectively. Esterified cholesterol was calculated as the difference between total-cholesterol and free cholesterol.
The primary outcome measure was LDL-C (percent change). Secondary outcome measures included ApoB, Non-HDL-C and HDL-C (percent change). The Intent-to-Treat (ITT) Population included all participants randomized into the study. […]

[1] = 5 mg once daily for 8 weeks on top of high-intensity statin
[2] = 5 mg once daily on top of high-intensity statin
[3] = 5 mg once daily on top of high-intensity statin, listed as obicetrapib
[4] = 5 mg once daily, 8 weeks, on top of high-intensity statin
[5] = 10 mg once daily for 8 weeks on top of high-intensity statin
[6] = 10 mg once daily on top of high-intensity statin
[7] = 10 mg once daily, 8 weeks, on top of high-intensity statin

CCOC(=O)N1c2ccc(C(F)(F)F)cc2[C@@H](N(Cc2cc(C(F)(F)F)cc(C(F)(F)F)c2)c2ncc(OCCCC(=O)O)cn2)C[C@H]1CC [Obicetrapib, (2R,4S)-4-{[3,5-bis(trifluoromethyl)benzyl]-[5-(3-carboxypropoxy)pyrimidin-2-yl]amino}-2-ethyl-6-trifluoromethyl-3,4-dihydro-2H-quinoline-1-carboxylic acid ethyl ester]
Time of treatment at which maximum LDL-C reductions were already present (5 mg and 10 mg add-on to high-intensity statin): ≤ 4 weeks
ApoB, EoT median [1]: 65.0 mg/dL
ApoB, change from baseline, median [1]: -22.0 mg/dL
HDL-C, EoT median [1]: 107.0 mg/dL
HDL-C, change from baseline, median [1]: 60.0 mg/dL
LDL-C by Friedewald, EoT median [1]: 51.0 mg/dL
LDL-C by PUC, EoT median [1]: 53.0 mg/dL
Non-HDL-C, EoT median [1]: 71 mg/dL
Apo A1, week 8 change, median (min, max) [2]: 44.6% and 44.6 (−10.0, 87.1) %
LDL-C (Martin-Hopkins), week 8 change, median (min, max) [2]: −42.5 (−80.8, 74.4) %
Lp(a), week 8 change, median (min, max) [2]: −33.8 (−84.6, 93.8) %
TG, week 8 change, median (min, max) [2]: −11.0 (−53.3, 86.7) %
VLDL-C, week 8 change, median (min, max) [2]: −11.5 (−53.5, 83.3) %
Apo A1, week 8 change, LS Mean ± SE [2]: 41.1 ± 3.04%
Apo B, week 8 change, LS Mean ± SE [2]: −22.4 ± 2.58%
HDL-C, week 8 change, LS Mean ± SE [2]: 122 ± 6.59%
LDL-C (Martin-Hopkins), week 8 change, LS Mean ± SE [2]: −39.6 ± 3.68%
Lp(a), week 8 change, LS Mean ± SE [2]: −30.9 ± 4.43%
Non-HDL-C, week 8 change, LS Mean ± SE [2]: −34.4 ± 3.18%
TG, week 8 change, LS Mean ± SE [2]: −6.63 ± 5.32%
VLDL-C, week 8 change, LS Mean ± SE [2]: −6.02 ± 5.24%
LDL-C (PUC), week 8 change, LS Mean ± SE (Table 9) [2]: −35.7 ± 3.31%
LDL-C (Martin-Hopkins), week 8 change, median (min, max) [3]: 42.5%
TG, week 8 change, median (min, max) [3]: −11.0%
VLDL-C, week 8 change, median (min, max) [3]: −11.5%
LDL-C by PUC, % change from baseline, LS mean (Table 3) [4]: −37.98%
LDL-C (Friedewald formula) reduced from baseline by [4]: 42.9%
Apo B reduced by [4]: 24.4%
Lp(a) reduced by [4]: 33.8%
non-HDL-C reduced by [4]: 38.9%
ApoB, % change from baseline, median (5 mg once daily): −24.40% and −24.4 (−58.5, 47.4) %
HDL-C, % change from baseline, median (5 mg once daily): 135% and 135.4% and 135 (−26.4, 213) %
LDL-C by Friedewald, % change from baseline (median) (5 mg once daily): −42.90% and −42.9 (−81.9, 72.4) %
LDL-C by PUC, % change from baseline (median) (5 mg once daily): −41.5% and −41.45% and −41.5 (−71.2, 62.3) %
Non-HDL-C, % change (median) from baseline (5 mg once daily): −38.9% and −38.9 (−65.6, 66.3) %
LDL-C by Friedewald, % change from baseline, LS mean (5 mg once daily): −37.94% and −38.0 ± 3.49%
LDL-C by PUC, % change from baseline (median) (5 mg once daily, listed as obicetrapib): −41.5%
ApoB, EoT median [5]: 58.5 mg/dL
ApoB, change from baseline, median [5]: -24.5 mg/dL
HDL-C, EoT median [5]: 117.5 mg/dL
HDL-C, change from baseline, median [5]: 72.0 mg/dL
LDL-C by Friedewald, EoT median [5]: 52.0 mg/dL
LDL-C by PUC, EoT median [5]: 49.5 mg/dL
Non-HDL-C, EoT median [5]: 69 mg/dL
Apo A1, week 8 change, median (min, max) [6]: 47.8% and 47.8 (13.5, 106) %
LDL-C (Martin-Hopkins), week 8 change, median (min, max) [6]: −49.2 (−77.0, 28.1) %
Lp(a), week 8 change, median (min, max) [6]: −56.5 (−85.7, 18.3) %
TG, week 8 change, median (min, max) [6]: −7.85 (−63.7, 129) %
VLDL-C, week 8 change, median (min, max) [6]: −7.90 (−44.4, 125) %
Apo A1, week 8 change, LS Mean ± SE [6]: 52.3 ± 3.04%
Apo B, week 8 change, LS Mean ± SE [6]: −28.1 ± 2.56%
HDL-C, week 8 change, LS Mean ± SE [6]: 157 ± 6.54%
LDL-C (Martin-Hopkins), week 8 change, LS Mean ± SE [6]: −46.9 ± 3.65%
Lp(a), week 8 change, LS Mean ± SE [6]: −42.0 ± 4.33%
Non-HDL-C, week 8 change, LS Mean ± SE [6]: −39.9 ± 3.15%
TG, week 8 change, LS Mean ± SE [6]: 2.45 ± 5.27%
VLDL-C, week 8 change, LS Mean ± SE [6]: 3.08 ± 5.19%
LDL-C (PUC), week 8 change, LS Mean ± SE (Table 9) [6]: −46.8 ± 3.23%
LDL-C (Martin-Hopkins), week 8 change, median (min, max) (10 mg once daily on top of high-intensity statin, listed as obicetrapib): −49.2%
LDL-C by PUC, % change from baseline, LS mean (Table 3) [7]: −44.15%
TG and VLDL-C, comparison with placebo [7]: not significantly different
LDL-C (Friedewald formula) reduced from baseline by [7]: 45.7%
Apo B reduced by [7]: 29.8%
Lp(a) reduced by [7]: 56.5%
non-HDL-C reduced by [7]: 44.4%
ApoB, % change from baseline, median (10 mg once daily): −29.75% and −29.8 (−58.4, 13.0) %
HDL-C, % change from baseline, median (10 mg once daily): 165% and 165 (55.1,286) %
LDL-C by Friedewald, % change from baseline (median) (10 mg once daily): −45.65% and −45.7 (−78.0, 26.2) %
LDL-C by PUC, % change from baseline (median) (10 mg once daily): −50.8% and −50.75% and −50.8 (−76.9, 15.6) %
Non-HDL-C, % change (median) from baseline (10 mg once daily): −44.4% and −44.4 (.70.2, 22.5) %
LDL-C by Friedewald, % change from baseline, LS mean (10 mg once daily): −44.15% and −44.2 ± 3.46%
LDL-C by PUC, % change from baseline (median) (10 mg once daily, listed as obicetrapib): −50.8%
median Apo B reduction from baseline, post-hoc analysis (10 mg, individuals with baseline Apo B >100 mg/dL): 39%

Source: patent US20230041138A1, “TREATMENT OF HIS HYPORESPONDERS” (NewAmsterdam Pharma B.V. (Dutch Registration No. 55971946), priority 2021, published 2023)
